# Like-named read-outs stand apart in the source and are kept apart here.
# Key:
# Male BALB/cJ mice = experiment: Lung neutrophilia induced by bacterial lipopolysaccharide in male BALB/cJ mice; format: in vivo; conditions: single 5 mg dose i.p., intranasal LPS, BALF about 24 hours after LPS, compared to positive control
# Experimental: Male BALB/cJ mice (Iffa Credo, France), with average weight ˜30 g were randomly grouped (n=7 in testing group, 8 in positive control, 7 in negative control). Mice were administered intraperitoneally (i.p.) a single 5 mg dose of test compound. Two hours after administration, 2 μg of bacterial lipopolysaccharide (LPS), dissolved in PBS in a volume of 60 μL, was intranasally administered to all experimental groups except the negative control group, which received the same volume (60 μL) of vehicle PBS. Animals were sacrificed approximately 24 hours after application of LPS in order to obtain bronchoalveolar lavage fluid (BALF), which was used to determine concentrations of IL-6 and TNF-α, absolute number of cells, and the percentage of neutophils in BALF. Results are expressed as percentage of decrease of total cell number, relative number of neutrophils, and TNF-α and IL-6 concentration in BALF of treated animals compared to positive control (LPS stimulated, but untreated animals).
# Besides accumulation of inflammatory cells in BALF, the extent and anatomic site of pulmonary inflammation induced by LPS was assessed 24 hours after PBS or LPS exposure. Accumulation of granulocytes and mononuclear cells in peribronchial (PB) and perivascular (PV) lung tissue areas and in alveolar spaces was monitored following sacrifice of the animals.
# TNF-α = experiment: Inhibition of TNF-α production by stimulated human peripheral blood leukocytes in vitro; format: cell-based; conditions: PBL; for inhibition at 10 µM / inhibition at 50 µM: Homo sapiens, Leukocyte, read-out: Percentage of inhibition of TNF-α production
# Summary of the method: (§1)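 Dextran-isolated human PBL (3-5×10^6 per well) in RPMI with 10% FCS were preincubated 2 h at 37 °C with compounds at 50 μM or 10 μM final, then stimulated overnight with 2 μg/mL LPS, 1 μg/mL PMA or 120 μg/mL zymosan. Supernatant cytokines by sandwich ELISA; % inhibition versus stimulated untreated control.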
# IL-1α = experiment: Inhibition of IL-1 production by stimulated human peripheral blood leukocytes in vitro; format: cell-based; conditions: PBL; for inhibition at 10 µM / inhibition at 50 µM: Homo sapiens, Leukocyte, read-out: Percentage of inhibition of IL-1α production
# [1] = tested on: human peripheral blood mononuclear cells (PBMC); experiment: Human T-cell proliferation in vitro (3H-thymidine incorporation); format: cell-based; conditions: for inhibition at 10 µM / inhibition at 50 µM: Homo sapiens, PBMC, read-out: Percentage of inhibition of proliferation of stimulated PBMC
# Summary of the method: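 Donor PBMC isolated on Histopaque, 5×10^4 cells/well cultured 3 days at 37 °C with PHA (2.5 μg/mL) or PMA (10 ng/mL) plus ionomycin (500 ng/mL), and compound at 50 μM or 10 μM. 3H-thymidine pulse during final 18 h; % inhibition versus stimulated untreated cpm.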
# IL-6 = experiment: Inhibition of IL-6 production by stimulated human peripheral blood leukocytes in vitro; format: cell-based; conditions: PBL; for inhibition at 10 µM / inhibition at 50 µM: Homo sapiens, Leukocyte, read-out: Percentage of inhibition of IL-6 production
# Summary of the method: as §1
# IL-8 = experiment: Inhibition of IL-8 production by stimulated human peripheral blood leukocytes in vitro; format: cell-based; conditions: PBL; for inhibition at 10 µM / inhibition at 50 µM: Homo sapiens, Leukocyte, read-out: Percentage of inhibition of IL-8 production
# Summary of the method: as §1
# [2] = zymosan stimulated, compound 10 μM
# [3] = zymosan stimulated, compound 50 μM
# [4] = PMA + ionomycin stimulated, compound 10 μM
# [5] = PMA + ionomycin stimulated, compound 50 μM
smiles,measurement,setting,value
"CC[C@H]1OC(=O)[C@H](C)[C@@H](O[C@H]2C[C@@](C)(OC)[C@@H](O)[C@H](C)O2)[C@H](C)[C@@H](O[C@@H]2O[C@H](C)C[C@H](N(C)C)[C@H]2O)[C@](C)(OC)C[C@@H](C)C(=O)[C@H](C)[C@@H](O)[C@]1(C)O [Clarithromycin, clarithromycin, reference compound]",percentage of decrease of IL-6 concentration in BALF,Male BALB/cJ mice,60
same,percentage of decrease of TNF-α concentration in BALF,Male BALB/cJ mice,78
same,percentage of decrease of relative number of neutrophils (% of neutrophils) in BALF,Male BALB/cJ mice,36
same,percentage of decrease of total cell number in BALF,Male BALB/cJ mice,77
same,inhibition at 10 µM,"TNF-α; LPS stimulated, compound 10 μM",0%
same,inhibition at 50 µM,"TNF-α; LPS stimulated, compound 50 μM",0%
same,inhibition at 10 µM,"TNF-α; PMA stimulated, compound 10 μM",0%
same,inhibition at 50 µM,"TNF-α; PMA stimulated, compound 50 μM",0%
same,inhibition at 10 µM,TNF-α; [2],0%
same,inhibition at 50 µM,TNF-α; [3],0%
same,inhibition at 10 µM,"IL-1α; LPS stimulated, compound 10 μM",0%
same,inhibition at 50 µM,"IL-1α; LPS stimulated, compound 50 μM",0%
same,inhibition at 10 µM,"IL-1α; PMA stimulated, compound 10 μM",26%
same,inhibition at 50 µM,"IL-1α; PMA stimulated, compound 50 μM",33%
same,inhibition at 10 µM,IL-1α; [2],36%
same,inhibition at 50 µM,IL-1α; [3],59%
same,inhibition at 10 µM,"[1]; PHA stimulated, compound 10 μM",0%
same,inhibition at 50 µM,"[1]; PHA stimulated, compound 50 μM",7%
same,inhibition at 10 µM,[1]; [4],9%
same,inhibition at 50 µM,[1]; [5],14%
same,inhibition at 10 µM,"IL-6; LPS stimulated, compound 10 μM",11%
same,inhibition at 50 µM,"IL-6; LPS stimulated, compound 50 μM",0%
same,inhibition at 10 µM,"IL-6; PMA stimulated, compound 10 μM",0%
same,inhibition at 50 µM,"IL-6; PMA stimulated, compound 50 μM",0%
same,inhibition at 10 µM,IL-6; [2],28%
same,inhibition at 50 µM,IL-6; [3],0%
same,inhibition at 10 µM,"IL-8; LPS stimulated, compound 10 μM",23%
same,inhibition at 50 µM,"IL-8; LPS stimulated, compound 50 μM",0%
same,inhibition at 10 µM,"IL-8; PMA stimulated, compound 10 μM",33%
same,inhibition at 50 µM,"IL-8; PMA stimulated, compound 50 μM",0%
same,inhibition at 10 µM,IL-8; [2],0%
same,inhibition at 50 µM,IL-8; [3],0%
"CC[C@H]1OC(=O)[C@H](C)[C@@H](O[C@H]2C[C@@](C)(OC)[C@@H](O)[C@H](C)O2)[C@H](C)[C@@H](O[C@@H]2O[C@H](C)C[C@H](N(C)C)[C@H]2O)[C@](C)(O)C[C@@H](C)CN(C)[C@H](C)[C@@H](O)[C@]1(C)O [Azithromycin, azithromycin, reference compound]",percentage of decrease of IL-6 concentration in BALF,Male BALB/cJ mice,72
same,percentage of decrease of TNF-α concentration in BALF,Male BALB/cJ mice,66
same,percentage of decrease of relative number of neutrophils (% of neutrophils) in BALF,Male BALB/cJ mice,37
same,percentage of decrease of total cell number in BALF,Male BALB/cJ mice,77
same,inhibition at 10 µM,"TNF-α; LPS stimulated, compound 10 μM",36%
same,inhibition at 50 µM,"TNF-α; LPS stimulated, compound 50 μM",20%
same,inhibition at 10 µM,"TNF-α; PMA stimulated, compound 10 μM",0%
same,inhibition at 50 µM,"TNF-α; PMA stimulated, compound 50 μM",0%
same,inhibition at 10 µM,TNF-α; [2],6%
same,inhibition at 50 µM,TNF-α; [3],64%
same,inhibition at 10 µM,"IL-1α; LPS stimulated, compound 10 μM",28%
same,inhibition at 50 µM,"IL-1α; LPS stimulated, compound 50 μM",48%
same,inhibition at 10 µM,"IL-1α; PMA stimulated, compound 10 μM",0%
same,inhibition at 50 µM,"IL-1α; PMA stimulated, compound 50 μM",0%
same,inhibition at 10 µM,IL-1α; [2],20%
same,inhibition at 50 µM,IL-1α; [3],75%
same,inhibition at 10 µM,"[1]; PHA stimulated, compound 10 μM",5%
same,inhibition at 50 µM,"[1]; PHA stimulated, compound 50 μM",29%
same,inhibition at 10 µM,[1]; [4],9%
same,inhibition at 50 µM,[1]; [5],31%
same,inhibition at 10 µM,"IL-6; LPS stimulated, compound 10 μM",15%
same,inhibition at 50 µM,"IL-6; LPS stimulated, compound 50 μM",40%
same,inhibition at 10 µM,"IL-6; PMA stimulated, compound 10 μM",0%
same,inhibition at 50 µM,"IL-6; PMA stimulated, compound 50 μM",0%
same,inhibition at 10 µM,IL-6; [2],20%
same,inhibition at 50 µM,IL-6; [3],75%
same,inhibition at 10 µM,"IL-8; LPS stimulated, compound 10 μM",0%
same,inhibition at 50 µM,"IL-8; LPS stimulated, compound 50 μM",0%
same,inhibition at 10 µM,"IL-8; PMA stimulated, compound 10 μM",0%
same,inhibition at 50 µM,"IL-8; PMA stimulated, compound 50 μM",0%
same,inhibition at 10 µM,IL-8; [2],0%
same,inhibition at 50 µM,IL-8; [3],0%
CCC1OC(=O)C(C)C(O)C(C)C(OC2OC(C)CC(N(C)C)C2O)C(C)(O)CC(C)CN(C(=S)NCc2ccccc2)C(C)C(O)C1(C)O (stereo not drawn) [Compound 1],percentage of decrease of IL-6 concentration in BALF,Male BALB/cJ mice,28
same,percentage of decrease of TNF-α concentration in BALF,Male BALB/cJ mice,41
same,percentage of decrease of relative number of neutrophils (% of neutrophils) in BALF,Male BALB/cJ mice,9
same,percentage of decrease of total cell number in BALF,Male BALB/cJ mice,50
same,Percentage of inhibition of TNF-α production,"TNF-α; LPS stimulated, compound 10 μM",0%
same,Percentage of inhibition of TNF-α production,"TNF-α; LPS stimulated, compound 50 μM",33%
same,Percentage of inhibition of TNF-α production,"TNF-α; PMA stimulated, compound 10 μM",2%
same,Percentage of inhibition of TNF-α production,"TNF-α; PMA stimulated, compound 50 μM",37%
same,Percentage of inhibition of TNF-α production,TNF-α; [2],34%
same,Percentage of inhibition of TNF-α production,TNF-α; [3],72%
same,Percentage of inhibition of IL-1α production,"IL-1α; LPS stimulated, compound 10 μM",52%
same,Percentage of inhibition of IL-1α production,"IL-1α; LPS stimulated, compound 50 μM",78%
same,Percentage of inhibition of IL-1α production,"IL-1α; PMA stimulated, compound 10 μM",38%
same,Percentage of inhibition of IL-1α production,"IL-1α; PMA stimulated, compound 50 μM",47%
same,Percentage of inhibition of IL-1α production,IL-1α; [2],65%
same,Percentage of inhibition of IL-1α production,IL-1α; [3],57%
same,Percentage of inhibition of proliferation of stimulated PBMC,"[1]; PHA stimulated, compound 10 μM",21%
same,Percentage of inhibition of proliferation of stimulated PBMC,"[1]; PHA stimulated, compound 50 μM",95%
same,Percentage of inhibition of proliferation of stimulated PBMC,[1]; [4],10%
same,Percentage of inhibition of proliferation of stimulated PBMC,[1]; [5],52%
same,Percentage of inhibition of IL-6 production,"IL-6; LPS stimulated, compound 10 μM",4%
same,Percentage of inhibition of IL-6 production,"IL-6; LPS stimulated, compound 50 μM",22%
same,Percentage of inhibition of IL-6 production,"IL-6; PMA stimulated, compound 10 μM",22%
same,Percentage of inhibition of IL-6 production,"IL-6; PMA stimulated, compound 50 μM",21%
same,Percentage of inhibition of IL-6 production,IL-6; [2],23%
same,Percentage of inhibition of IL-6 production,IL-6; [3],59%
same,Percentage of inhibition of IL-8 production,"IL-8; LPS stimulated, compound 10 μM",40%
same,Percentage of inhibition of IL-8 production,"IL-8; LPS stimulated, compound 50 μM",0%
same,Percentage of inhibition of IL-8 production,"IL-8; PMA stimulated, compound 10 μM",4%
same,Percentage of inhibition of IL-8 production,"IL-8; PMA stimulated, compound 50 μM",0%
same,Percentage of inhibition of IL-8 production,IL-8; [2],12%
same,Percentage of inhibition of IL-8 production,IL-8; [3],79%

# Source: patent publication US20080200403A1, “9A-Carbamoyl and Thiocarbamoyl Azalides with Anti-Inflammatory Activity” (GLAXOSMITHKLINE, priority 2005, published 2008)
